Assay results taken from patent US11912693B2, “Compounds for modulating S1P1 activity and methods of using the same” (TREVENA, INC., priority 2017, dated 2024).

Assays:
[1] = biological target: T1, human sphingosine-1-phosphate receptor 1 (S1P1) (Homo sapiens (Human), UniProt P21453); experiment: Inhibition of cAMP production (HTRF cAMP HiRange), S1P1 CHO-K1 cells; format: cell-based; details: for Emax: CHO-K1, efficacy (SPAN) normalized to fingolimod, read-out: hS1P1 cAMP SPAN
Procedure, shortened: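 CHO-K1 cells stably co-expressing human S1P1 (C-terminal Prolink tag) and EA-β-arrestin2 were grown in AssayComplete Media 6 at 37° C. and 5% CO2, plated, and incubated overnight. Agonist-driven inhibition of intracellular cAMP was read by TR-FRET with the HTRF cAMP HiRange kit on a PheraStar reader. Potency is pEC50, and efficacy (SPAN) is normalized to fingolimod.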
Target sequence in this assay (P21453 whole entry, looked up): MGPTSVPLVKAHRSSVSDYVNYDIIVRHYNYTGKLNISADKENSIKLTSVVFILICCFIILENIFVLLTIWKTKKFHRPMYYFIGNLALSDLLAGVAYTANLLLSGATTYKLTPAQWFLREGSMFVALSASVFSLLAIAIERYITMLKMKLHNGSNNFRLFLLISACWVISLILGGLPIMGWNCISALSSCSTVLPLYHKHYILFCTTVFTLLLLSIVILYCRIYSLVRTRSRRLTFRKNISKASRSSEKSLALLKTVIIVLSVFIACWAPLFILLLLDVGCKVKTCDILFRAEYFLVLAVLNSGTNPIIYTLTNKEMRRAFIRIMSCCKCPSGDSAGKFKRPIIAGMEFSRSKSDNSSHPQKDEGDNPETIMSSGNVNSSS

[2] = biological target: T1, human sphingosine-1-phosphate receptor 1 (S1P1); experiment: β-Arrestin2 recruitment assay (PathHunter), S1P1 CHO-K1 cells; format: cell-based; details: for Emax: CHO-K1, efficacy (SPAN) normalized to fingolimod, read-out: hS1P1 B-arrestin2 SPAN
Procedure, shortened: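 Enzyme-fragment complementation read-out: agonist-driven β-arrestin2 binding to ProLink-tagged human S1P1 in stable CHO-K1 cells restores β-galactosidase, measured 1 h at room temperature after a 60 min 37° C. compound incubation. Potency as pEC50, efficacy relative to fingolimod (SPAN).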
Target sequence in this assay (P21453 whole entry, looked up): as above
Target sequence in this assay (P32121 whole entry partner, looked up): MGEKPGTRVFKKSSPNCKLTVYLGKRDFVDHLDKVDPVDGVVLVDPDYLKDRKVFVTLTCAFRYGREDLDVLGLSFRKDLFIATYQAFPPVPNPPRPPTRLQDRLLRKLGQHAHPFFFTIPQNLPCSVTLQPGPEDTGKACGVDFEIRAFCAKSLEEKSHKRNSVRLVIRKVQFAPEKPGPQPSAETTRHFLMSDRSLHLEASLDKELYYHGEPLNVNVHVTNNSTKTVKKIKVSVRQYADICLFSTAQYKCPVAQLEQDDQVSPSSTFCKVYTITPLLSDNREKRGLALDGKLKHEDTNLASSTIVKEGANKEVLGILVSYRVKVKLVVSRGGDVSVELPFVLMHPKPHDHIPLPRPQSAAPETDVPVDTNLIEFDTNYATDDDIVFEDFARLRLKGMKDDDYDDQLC

[3] = inhibition of cAMP production, S1P1 CHO-K1 cells
[4] = β-arrestin2 recruitment, S1P1 CHO-K1 cells

Row | hS1P1 cAMP pEC50 [1, 3] | hS1P1 B-arrestin2 pEC50 [2, 4] | Emax [1] | Emax [2] | EC50 ([1]; inhibition of cAMP production, S1P1 CHO-K1 cells, read-out: hS1P1 cAMP pEC50 (converted)) | EC50 ([2]; β-arrestin2 recruitment, S1P1 CHO-K1 cells, read-out: hS1P1 B-arrestin2 pEC50 (converted)) | SMILES
1 | <6.5 | <5 | – | – | – | – | Cc1ccc(-c2noc(-c3ccc4c(c3)nnn4C3CCCC3)n2)s1 [Compound 192, 1-cyclopentyl-5-[3-(5-methylthiophen-2-yl)-1,2,4-oxadiazol-5-yl]-1H-1,2,3-benzotriazole]
2 | <6.5 | <5 | – | – | – | – | CCCn1nnc2cc(-c3nc(-c4ccc(C(F)(F)F)c(F)c4)no3)ccc21 [Compound 193, 5-{3-[3-fluoro-4-(trifluoromethyl)phenyl]-1,2,4-oxadiazol-5-yl}-1-propyl-1H-1,2,3-benzotriazole]
3 | <6.5 | <5 | < 75% | < 75% | – | – | Cc1ncccc1-c1nc(-c2ccc3c(c2)nnn3C(C)C)no1 [Compound 194, 3-(1-isopropyl-1H-benzo[d][1,2,3]triazol-5-yl)-5-(2-methylpyridin-3-yl)-1,2,4-oxadiazole]
4 | – | – | < 75% | < 75% | > 0.316 µM | > 10 µM | O=C(O)Cn1nnc2cc(-c3noc(-c4ccccc4Br)n3)ccc21 [Compound 195, 2-(5-(5-(2-bromophenyl)-1,2,4-oxadiazol-3-yl)-1H-benzo[d][1,2,3]triazol-1-yl)acetic acid]
5 | <6.5 | <5 | – | – | – | – | COc1ccc(-c2nc(-c3ccc4c(c3)nnn4C3CCCC3)no2)cc1 [Compound 196, 3-(1-cyclopentyl-1H-benzo[d][1,2,3]triazol-5-yl)-5-(4-methoxyphenyl)-1,2,4-oxadiazole]
6 | <6.5 | <5 | < 75% | < 75% | – | – | COc1ccc(-c2noc(-c3ccc4c(c3)nnn4C3CCCC3)n2)cc1C(F)(F)F [Compound 197, 1-cyclopentyl-5-{3-[4-methoxy-3-(trifluoromethyl)phenyl]-1,2,4-oxadiazol-5-yl}-1H-1,2,3-benzotriazole]
7 | >6.5 | >5 | > 75% | < 75% | – | – | Clc1ncccc1-c1noc(-c2ccc3c(c2)nnn3C2CCCC2)n1 [Compound 198, 5-[3-(2-chloropyridin-3-yl)-1,2,4-oxadiazol-5-yl]-1-cyclopentyl-1H-1,2,3-benzotriazole]
8 | <6.5 | <5 | < 75% | < 75% | – | – | Clc1ncccc1-c1noc(-c2ccc3c(c2)nnn3CC2CC2)n1 [Compound 199, 5-[3-(2-chloropyridin-3-yl)-1,2,4-oxadiazol-5-yl]-1-(cyclopropylmethyl)-1H-1,2,3-benzotriazole]
9 | <6.5 | <5 | – | – | – | – | CC(C)n1nnc2cc(-c3noc(C45CC6CC(CC(C6)C4)C5)n3)ccc21 [Compound 200, 5-[5-(adamantan-1-yl)-1,2,4-oxadiazol-3-yl]-1-(propan-2-yl)-1H-1,2,3-benzotriazole]
10 | <6.5 | <5 | – | – | – | – | Cc1cc(-c2nc(-c3ccc4c(c3)nnn4C(C)C)no2)cnc1C [Compound 201, 5-(5,6-dimethylpyridin-3-yl)-3-(1-isopropyl-1H-benzo[d][1,2,3]triazol-5-yl)-1,2,4-oxadiazole]
11 | <6.5 | <5 | < 75% | < 75% | – | – | Cc1ccccc1Cc1noc(-c2ccc3c(c2)nnn3C(C)C)n1 [Compound 202, 5-{3-[(2-methylphenyl)methyl]-1,2,4-oxadiazol-5-yl}-1-(propan-2-yl)-1H-1,2,3-benzotriazole]
12 | <6.5 | <5 | < 75% | > 75% | – | – | COc1cccnc1-c1noc(-c2ccc3c(c2)nnn3C2CCCC2)n1 [Compound 203, 1-cyclopentyl-5-[3-(3-methoxypyridin-2-yl)-1,2,4-oxadiazol-5-yl]-1H-1,2,3-benzotriazole]
13 | <6.5 | >5 | > 75% | > 75% | – | – | Cc1cc(C)cc(-c2noc(-c3ccc4c(c3)nnn4C(C)C)n2)c1 [Compound 204, 5-[3-(3,5-dimethylphenyl)-1,2,4-oxadiazol-5-yl]-1-(propan-2-yl)-1H-1,2,3-benzotriazole]
14 | <6.5 | <5 | > 75% | < 75% | – | – | CCCn1nnc2cc(-c3nc(-c4ccncc4)no3)ccc21 [Compound 205, 1-propyl-5-[3-(pyridin-4-yl)-1,2,4-oxadiazol-5-yl]-1H-1,2,3-benzotriazole]
15 | <6.5 | <5 | > 75% | < 75% | – | – | Cc1ccncc1-c1noc(-c2ccc3c(c2)nnn3CC(C)(C)O)n1 [Compound 206, 2-methyl-1-{5-[3-(4-methylpyridin-3-yl)-1,2,4-oxadiazol-5-yl]-1H-1,2,3-benzotriazol-1-yl}propan-2-ol]
16 | >6.5 | >5 | > 75% | > 75% | – | – | COc1ccccc1-c1noc(-c2ccc3c(c2)nnn3C(C)(C)C)n1 [Compound 207, 1-tert-butyl-5-[3-(2-methoxyphenyl)-1,2,4-oxadiazol-5-yl]-1H-1,2,3-benzotriazole]
17 | >6.5 | >5 | > 75% | > 75% | – | – | C=CCNc1ccc(-c2nc(-c3ccc4[nH]ccc4c3)no2)cc1C#N [Compound 208, 5-(3-(1H-indol-5-yl)-1,2,4-oxadiazol-5-yl)-2-(allylamino)benzonitrile]
18 | >6.5 | >5 | > 75% | > 75% | – | – | CCC1(CC)CC(=O)c2cc(-c3nc(-c4ccc(NC(C)=O)cc4)no3)ccc2O1 [Compound 209, N-(4-(5-(2,2-diethyl-4-oxochroman-6-yl)-1,2,4-oxadiazol-3-yl)phenyl)acetamide]
19 | <6.5 | >5 | < 75% | > 75% | – | – | CCC1(CC)CC(=O)c2cc(-c3nc(-c4ccc5[nH]cnc5c4)no3)ccc2O1 [Compound 211, 6-(3-(1H-benzo[d]imidazol-5-yl)-1,2,4-oxadiazol-5-yl)-2,2-diethylchroman-4-one]
20 | <6.5 | <5 | – | – | – | – | COc1ccccc1-c1nsc(-c2ccc3c(c2)nnn3C(C)C)n1 [Compound 213, 5-[3-(2-methoxyphenyl)-1,2,4-thiadiazol-5-yl]-1-(propan-2-yl)-1H-1,2,3-benzotriazole]
21 | <6.5 | <5 | < 75% | < 75% | – | – | O=C1CC2(CCOCC2)Oc2ccc(-c3nc(-c4cccnc4)no3)cc21 [Compound 214, 6-[3-(pyridin-3-yl)-1,2,4-oxadiazol-5-yl]-3,4-dihydrospiro[1-benzopyran-2,4′-oxane]-4-one]
22 | <6.5 | <5 | < 75% | < 75% | – | – | CC(C)n1nnc2cc(-c3ncc(-c4ccccc4C(F)(F)F)s3)ccc21 [Compound 215, 2-(1-isopropyl-1H-benzo[d][1,2,3]triazol-5-yl)-5-(2-(trifluoromethyl)phenyl)thiazole]
23 | <6.5 | <5 | < 75% | < 75% | – | – | Cc1ccccc1-c1cnc(-c2ccc3c(c2)nnn3C(C)C)s1 [Compound 216, 2-(1-isopropylbenzotriazol-5-yl)-5-(o-tolyl)thiazole]
24 | <6.5 | <5 | – | – | – | – | O=C1CC2(CCC(F)(F)CC2)Oc2ccc(-c3nc(-c4ccncc4)no3)cc21 [Compound 217, 4′,4′-difluoro-6-[3-(pyridin-4-yl)-1,2,4-oxadiazol-5-yl]-3,4-dihydrospiro[1-benzopyran-2,1′-cyclohexane]-4-one]
25 | <6.5 | <5 | – | – | – | – | CCCC1(CCC)CC(=O)c2cc(-c3nc(-c4cccnc4)no3)ccc2O1 [Compound 218, 2,2-dipropyl-6-[3-(pyridin-3-yl)-1,2,4-oxadiazol-5-yl]-3,4-dihydro-2H-1-benzopyran-4-one]
26 | <6.5 | <5 | – | – | – | – | CC(C)n1nnc2cc(-c3ncc(-c4ccccc4Br)s3)ccc21 [Compound 220, 5-(2-bromophenyl)-2-(1-isopropylbenzotriazol-5-yl)thiazole]
27 | <6.5 | >5 | – | – | – | – | CCC1(CC)CC(=O)c2cc(-c3nsc(-c4ccccc4OC)n3)ccc2O1 [Compound 222, 2,2-diethyl-6-(5-(2-methoxyphenyl)-1,2,4-thiadiazol-3-yl)chroman-4-one]
28 | <6.5 | <5 | < 75% | < 75% | – | – | CCC1(CC)CC(=O)c2cc(-c3nnc(-c4ccc5c(c4)nnn5C(C)C)o3)ccc2O1 [Compound 223, 2,2-diethyl-6-(5-(1-isopropyl-1H-benzo[d][1,2,3]triazol-5-yl)-1,3,4-oxadiazol-2-yl)chroman-4-one]
29 | <6.5 | >5 | – | – | – | – | CCC1(CC)CC(=O)c2cc(-c3nc(-c4cccc(C)c4)no3)ccc2O1 [Compound 225, 2,2-diethyl-6-(3-(m-tolyl)-1,2,4-oxadiazol-5-yl)chroman-4-one]
